Reference: ChEMBL document CHEMBL2016558, “CB 1/2 dual agonists with 3-carbamoyl 2-pyridone derivatives as antipruritics: reduction of CNS side effects by introducing polar functional groups” (Bioorg Med Chem Lett, 2012)

Legend:
Mus musculus [1] = experiment: Toxicity in ICR mouse assessed as CB1-mediated stretching the without moving at 0.1 to 1 mg/kg, iv after 15 mins; format: organism-based; design: dose 0.1-1 mg/kg, route intravenous; details: in vivo, 0.25 h
Cannabinoid receptor 2 = Cannabinoid receptor 2 (Homo sapiens, UniProt P34972); experiment: Displacement of [3H]-CP55940 from recombinant human CB2 receptor by scatchard plot analysis
Chain of Cannabinoid receptor 2 (P34972 whole entry): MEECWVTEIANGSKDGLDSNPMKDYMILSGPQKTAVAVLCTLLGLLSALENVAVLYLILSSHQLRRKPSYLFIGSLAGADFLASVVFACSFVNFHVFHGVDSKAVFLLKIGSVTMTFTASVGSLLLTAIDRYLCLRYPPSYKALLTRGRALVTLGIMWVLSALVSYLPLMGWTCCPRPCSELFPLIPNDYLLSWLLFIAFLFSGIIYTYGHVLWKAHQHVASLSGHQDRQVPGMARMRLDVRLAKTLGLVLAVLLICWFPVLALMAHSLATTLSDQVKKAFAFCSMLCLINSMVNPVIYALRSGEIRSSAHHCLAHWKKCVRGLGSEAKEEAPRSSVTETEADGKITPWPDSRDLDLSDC

Mus musculus [2] = experiment: Toxicity in ICR mouse assessed as CB1-mediated walking with lying on the belly at 0.1 to 1 mg/kg, iv after 15 mins; format: organism-based; design: dose 0.1-1 mg/kg, route intravenous; details: in vivo, 0.25 h
Mus musculus [3] = experiment: Toxicity in ICR mouse assessed as CB1-mediated moving sluggishly at 0.1 to 1 mg/kg, iv after 15 mins; format: organism-based; design: dose 0.1-1 mg/kg, route intravenous; details: in vivo, 0.25 h
Mus musculus [4] = experiment: Toxicity in ICR mouse assessed as CB1-mediated spasm, rigor at 0.1 to 1 mg/kg, iv after 15 mins; format: organism-based; design: dose 0.1-1 mg/kg, route intravenous; details: in vivo, 0.25 h
Cannabinoid receptor 1 = Cannabinoid receptor 1 (Homo sapiens, UniProt P21554); experiment: Displacement of [3H]-CP55940 from recombinant human CB1 receptor by scatchard plot analysis
Chain of Cannabinoid receptor 1 (P21554 whole entry): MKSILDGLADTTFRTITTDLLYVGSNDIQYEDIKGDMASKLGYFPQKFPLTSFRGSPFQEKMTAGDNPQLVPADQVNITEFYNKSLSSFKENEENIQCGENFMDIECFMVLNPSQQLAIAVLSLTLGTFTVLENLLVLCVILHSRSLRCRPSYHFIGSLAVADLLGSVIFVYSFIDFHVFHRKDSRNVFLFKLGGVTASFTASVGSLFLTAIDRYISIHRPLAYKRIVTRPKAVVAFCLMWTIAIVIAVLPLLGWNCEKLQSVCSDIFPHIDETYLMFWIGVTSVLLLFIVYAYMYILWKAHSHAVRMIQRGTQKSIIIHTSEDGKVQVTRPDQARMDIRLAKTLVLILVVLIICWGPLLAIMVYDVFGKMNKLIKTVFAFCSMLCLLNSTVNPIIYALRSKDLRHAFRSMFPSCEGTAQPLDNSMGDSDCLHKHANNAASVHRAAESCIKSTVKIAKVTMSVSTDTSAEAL

Mus musculus [5] = experiment: Toxicity in ICR mouse assessed as CB1-induced catalepsy at 0.1 to 1 mg/kg, iv after 15 mins; format: organism-based; design: dose 0.1-1 mg/kg, route intravenous; details: in vivo, 0.25 h
[6] = Ratio of drug level in brain to plasma in rat; format: ADME; details: read-out: BPR
Mus musculus [7] = experiment: Antipruritic activity in Crj:CD1 ICR mouse pruritic model assessed as inhibition of compound 48/80-induced scratching compound topically applied on the shaved back 15 mins prior challenge measured for 30 mins relative to control; format: functional

Structure (SMILES)	Activity (Mus musculus [1])	Ki (Cannabinoid receptor 2)	Activity (Mus musculus [2])	Activity (Mus musculus [3])	Activity (Mus musculus [4])	Ki (Cannabinoid receptor 1)	Activity (Mus musculus [5])	Kp [6]	inhibition (INH) (Mus musculus [7])
CC(C)(NC(=O)c1cc2c(n(CC3CCCCC3)c1=O)CCCCCC2)C(=O)NN	Toxic	2.8 nM	Toxic	Toxic	Toxic	30 nM	Toxic		
CC(C)(NC(=O)c1cc2c(n(CC3CCCCC3)c1=O)CCCCCC2)C(=O)N1CCC(O)CC1	Toxic	1.1 nM	Toxic	Toxic	Toxic	8 nM	Toxic		
CC(C)(NC(=O)c1cc2c(n(CC3CCCCC3)c1=O)CCCCCC2)C(=O)NCC(=O)O		2820 nM				> 5000 nM			
CC(C)(NC(=O)c1cc2c(n(CC3CCCCC3)c1=O)CCCCCC2)C(=O)N1CCC(C(=O)NS(C)(=O)=O)CC1		128 nM				218 nM			
CC(C)(NC(=O)c1cc2c(n(CC3CCCCC3)c1=O)CCCCCC2)C(=O)N1CCC(C(N)=O)CC1	Toxic	3 nM	Toxic	Toxic	Toxic	4.9 nM	Toxic		
CC(C)(NC(=O)c1cc2c(n(CC3CCCCC3)c1=O)CCCCCC2)C(=O)NCCCO	Toxic	1 nM	Toxic	Toxic	Toxic	6.3 nM	Toxic		
CC(C)(NC(=O)c1cc2c(n(CC3CCCCC3)c1=O)CCCCCC2)C(=O)N1CCC(NS(C)(=O)=O)CC1	Non-toxic		Non-toxic	Non-toxic	Non-toxic		Non-toxic		
CN(C)CCNC(=O)C(C)(C)NC(=O)c1cc2c(n(CC3CCCCC3)c1=O)CCCCCC2		81 nM				242 nM			
CC(C)(NC(=O)c1cc2c(n(CC3CCCCC3)c1=O)CCCCCC2)C(=O)NCCOCCO	Toxic	0.6 nM	Toxic	Toxic	Toxic	3.4 nM	Toxic		
CN(CCO)C(=O)C(C)(C)NC(=O)c1cc2c(n(CC3CCCCC3)c1=O)CCCCCC2	Toxic	0.6 nM	Toxic	Toxic	Toxic		Toxic	0.28	
CC(C)(NC(=O)c1cc2c(n(CC3CCCCC3)c1=O)CCCCCC2)C(=O)NNS(C)(=O)=O	Non-toxic	7.3 nM	Non-toxic	Non-toxic	Non-toxic	32 nM	Non-toxic	0.02	87%
CC(C)(NC(=O)c1cc2c(n(CC3CCCCC3)c1=O)CCCCCC2)C(=O)NCC(N)=O	Toxic		Toxic	Toxic	Toxic		Toxic		
CC(C)(NC(=O)c1cc2c(n(CC3CCCCC3)c1=O)CCCCCC2)C(=O)N1CCC(C(=O)O)CC1		377 nM				2970 nM			
CC(C)(NC(=O)c1cc2c(n(CC3CCCCC3)c1=O)CCCCCC2)C(=O)NCCCCCO	Toxic	1.2 nM	Toxic	Toxic	Toxic	5.8 nM	Toxic		
CC(=O)NCCNC(=O)C(C)(C)NC(=O)c1cc2c(n(CC3CCCCC3)c1=O)CCCCCC2	Toxic	2.5 nM	Toxic	Toxic	Toxic	4.7 nM	Toxic		
COC(=O)C(C)(C)NC(=O)c1cc2c(n(CC3CCCCC3)c1=O)CCCCCC2	Toxic	0.3 nM	Toxic	Toxic	Toxic	1.7 nM	Toxic	3.35	
